What was measured:
CDK1/CycB = biological target: T1, CDK1/CycB (Homo sapiens, UniProt P06493); test: CDK1/CycB kinase assay; format: biochemical; conditions: 0.5 μM ATP, histone IIIS, 22° C., 10 min
T1 construct: GST; purchased ProQinase GmbH, Freiburg; host or cells: baculovirus-infected insect cells (Sf9)
Method: (§1) Recombinant CDK1- and CycB-GST fusion proteins, purified from baculovirus-infected insect cells (Sf9), were purchased from ProQinase GmbH, Freiburg. The histone IIIS used as kinase substrate can be purchased from Sigma. CDK1/CycB (200 ng/measurement point) was incubated in the presence of various concentrations of test substances (0 μM, and within the range 0.01-100 μM) in assay buffer [50 mM Tris/HCl pH 8.0, 10 mM MgCl2, 0.1 mM Na ortho-vanadate, 1.0 mM dithiothreitol, 0.5 μM ATP, 10 μg/measurement point histone IIIS, 0.2 μCi/measurement point ^33P-gamma-ATP, 0.05% NP40, 1.25% dimethyl sulphoxide] at 22° C. for 10 min. The reaction was stopped by adding EDTA solution (250 mM, pH 8.0, 15 μl/measurement point).
15 μl of each reaction mixture were loaded onto P30 filter strips (from Wallac), and non-incorporated ^33P-ATP was removed by washing the filter strips three times in 0.5% strength phosphoric acid for 10 min each time. After the filter strips had been dried at 70° C. for 1 hour, the filter strips were covered with scintillator strips (MeltiLex™ A, from Wallac) and baked at 90° C. for 1 hour. The amount of incorporated ^33P (substrate phosphorylation) was determined by scintillation measurement in a gamma radiation counter (Wallac).

MCF7 breast tumour cells = test: MCF7 proliferation assay; format: cell-based, human; conditions: for IC50: Homo sapiens, MCF7, 96 h, 4 days incubation, crystal violet staining; for antiproliferative activity, MCF7 (in words): summary of Tab. 2
Method: Cultivated human MCF7 breast tumour cells (ATCC HTB-22) were plated out in a density of 5000 cells/measurement point in 200 μl of growth medium (RPMI1640, 10% foetal calf serum, 2 mU/mL insulin, 0.1 nM oestradiol) in a 96-well multititre plate. After 24 hours, the cells from a plate (zero plate) were stained with crystal violet (see below), while the medium in the other plates was replaced by fresh culture medium (200 μl) to which the test substances had been added in various concentrations (0 μM, and in the range 0.1-30 μM; the final concentration of the solvent dimethyl sulphoxide was 0.5%). The cells were incubated in the presence of the test substances for 4 days. The cell proliferation was determined by staining the cells with crystal violet: the cells were fixed by adding 20 μl/measurement point of an 11% strength glutaraldehyde solution at room temperature for 15 min. After the fixed cells had been washed three times with water, the plates were dried at room temperature. The cells were stained by adding 100 μl/measurement point of a 0.1% strength crystal violet solution (pH adjusted to pH 3 by adding acetic acid). After the stained cells had been washed three times with water, the plates were dried at room temperature. The dye was dissolved by adding 100 μl/measurement point of a 10% strength acetic acid solution, and the extinction was determined by photometry at a wavelength of 595 nm. The percentage change in cell growth was calculated by normalizing the measurements to the extinctions of the zero point plate (=0%) and the extinction of the untreated (0 μM) cells (=100%). The IC50 values were determined by means of a 4-parameter fit using the company's own software.

CDK2/CycE = biological target: T2, CDK2/CycE (Homo sapiens, UniProt P24941); test: CDK2/CycE kinase assay; format: biochemical; conditions: 0.5 μM ATP, histone IIIS, 22° C., 10 min
T2 construct: GST; purchased ProQinase GmbH, Freiburg; host or cells: baculovirus-infected insect cells (Sf9)
Method: Recombinant CDK2- and CycE-GST fusion proteins, purified from baculovirus-infected insect cells (Sf9), were purchased from ProQinase GmbH, Freiburg. The histone IIIS used as kinase substrate was purchased from Sigma.
as §1, with “CDK2/CycE (50” for “Recombinant CDK1- and CycB-GST fusion proteins, purified from baculovirus-infected insect cells (Sf9), were purchased from ProQinase GmbH, Freiburg. The histone IIIS used as kinase substrate can be purchased from Sigma. CDK1/CycB (200”
15 μl of each reaction mixture were loaded onto P30 filter strips (from Wallac), and non-incorporated ^33P-ATP was removed by washing the filter strips three times in 0.5% strength phosphoric acid for 10 min each time.
After the filter strips had been dried at 70° C. for 1 hour, the filter strips were covered with scintillator strips (MeltiLex™ A, from Wallac) and baked at 90° C. for 1 hour. The amount of incorporated ^33P (substrate phosphorylation) was determined by scintillation measurement in a gamma radiation counter (Wallac).

KDR (VEGFR2) = biological target: T3, KDR (VEGFR2) (Homo sapiens, UniProt P35968); test: KDR kinase assay; format: biochemical; conditions: 10 μM ATP, 22° C., 45 min, HTRF
T3 construct: made in house; host or cells: E. coli
Method: Recombinant KDR protein was expressed in E. coli and then purified. The kinase substrate used was the biotinylated peptide having the amino acid sequence biotin-DFGLARDMYDKEYYSVG, which was purchased from Biosynthan. KDR [test volume 5 μl] was incubated in the presence of various concentrations of test substances (0 μM, and 10 measurement points within the range 0.001-20 μM in duplicate) in assay buffer [50 mM HEPES pH 7.0, 25.0 mM MgCl2, […], 0.1 mM Na ortho-vanadate, 1.0 mM dithiothreitol, 0.001% NP40, 10 μM ATP, 0.03 μM substrate peptide […], 1.0% dimethyl sulphoxide] at 22° C. for 45 min. The reaction was stopped by adding 5 μl of an EDTA/detection solution [50 mM HEPES pH 7.5, 125 mM EDTA, 0.2% BSA, 0.1 μM streptavidin-XLent (from CisBio), 2 nM PT66-Eu (from PerkinElmer)]. The fluorescence emission at 620 nm and 665 nm after excitation with light of the wavelength 350 nm was measured in a Rubystar HTRF instrument from BMG Labsystems.
The measured data (ratio of emission 665 divided by emission 620 multiplied by 10 000) were normalized to 0% inhibition (enzyme reaction without inhibitor) and 100% inhibition (all assay components apart from enzyme). The IC50 values were determined by means of a 4-parameter fit using the company's own software.

Aurora-C = biological target: T4, Aurora-C (Homo sapiens, UniProt Q9UQB9); test: Aurora-C kinase assay; format: biochemical; conditions: for IC50: 3 μM ATP, 22° C., 90 min
T4 construct: made in house; host or cells: transiently transfected HEK293 cells
T4 sequence (Q9UQB9 1-309): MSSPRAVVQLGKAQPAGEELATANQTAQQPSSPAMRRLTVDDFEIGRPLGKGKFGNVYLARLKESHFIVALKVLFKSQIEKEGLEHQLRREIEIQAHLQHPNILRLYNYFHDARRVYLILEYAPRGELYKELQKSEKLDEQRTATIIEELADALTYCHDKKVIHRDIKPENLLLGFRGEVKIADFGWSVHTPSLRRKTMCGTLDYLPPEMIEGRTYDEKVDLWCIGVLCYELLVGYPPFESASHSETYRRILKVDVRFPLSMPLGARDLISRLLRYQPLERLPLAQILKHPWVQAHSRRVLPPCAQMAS
Method: Recombinant Aurora-C protein was expressed in transiently transfected HEK293 cells and then purified. The kinase substrate used was the biotinylated peptide having the amino acid sequence biotin-FMRLRRLSTKYRT, which was purchased from Jerini AG in Berlin.
Aurora-C [5 nM in the test mixture, test volume 5 μl] was incubated in the presence of various concentrations of test substances (0 μM and 10 measurement points within the range 0.001-20 μM in duplicate) in assay buffer [25 mM HEPES pH 7.4, 0.5 mM MnCl2, 0.1 mM Na ortho-vanadate, 2.0 mM dithiothreitol, 0.05% bovine serum albumin (BSA), 0.01% Triton X-100, 3 μM adenosine trisphosphate (ATP), 0.67 nCi/μl gamma-^33P-ATP, 2.0 μM substrate peptide biotin-FMRLRRLSTKYRT, 1.0% dimethyl sulphoxide] at 22° C. for 90 min. The reaction was stopped by adding 12.5 μl of an EDTA/detection solution [16 mM EDTA, 40 mM ATP, 0.08% Triton X-100, 4 mg/ml PVT streptavidin SPA beads (from Amersham)]. After incubation for 10 minutes, the SPA beads were pelleted by centrifugation at 1000×G for 10 minutes. Measurement took place in a PerkinElmer Topcount scintillation counter. The measured data were normalized to 0% inhibition (enzyme reaction without inhibitor) and 100% inhibition (enzyme reaction in the presence of 0.1 μM staurosporine (from Sigma)). The IC50 values were determined by means of a 4-parameter fit using the company's own software.

T3 sequence (P35968 20-1356, species assumed): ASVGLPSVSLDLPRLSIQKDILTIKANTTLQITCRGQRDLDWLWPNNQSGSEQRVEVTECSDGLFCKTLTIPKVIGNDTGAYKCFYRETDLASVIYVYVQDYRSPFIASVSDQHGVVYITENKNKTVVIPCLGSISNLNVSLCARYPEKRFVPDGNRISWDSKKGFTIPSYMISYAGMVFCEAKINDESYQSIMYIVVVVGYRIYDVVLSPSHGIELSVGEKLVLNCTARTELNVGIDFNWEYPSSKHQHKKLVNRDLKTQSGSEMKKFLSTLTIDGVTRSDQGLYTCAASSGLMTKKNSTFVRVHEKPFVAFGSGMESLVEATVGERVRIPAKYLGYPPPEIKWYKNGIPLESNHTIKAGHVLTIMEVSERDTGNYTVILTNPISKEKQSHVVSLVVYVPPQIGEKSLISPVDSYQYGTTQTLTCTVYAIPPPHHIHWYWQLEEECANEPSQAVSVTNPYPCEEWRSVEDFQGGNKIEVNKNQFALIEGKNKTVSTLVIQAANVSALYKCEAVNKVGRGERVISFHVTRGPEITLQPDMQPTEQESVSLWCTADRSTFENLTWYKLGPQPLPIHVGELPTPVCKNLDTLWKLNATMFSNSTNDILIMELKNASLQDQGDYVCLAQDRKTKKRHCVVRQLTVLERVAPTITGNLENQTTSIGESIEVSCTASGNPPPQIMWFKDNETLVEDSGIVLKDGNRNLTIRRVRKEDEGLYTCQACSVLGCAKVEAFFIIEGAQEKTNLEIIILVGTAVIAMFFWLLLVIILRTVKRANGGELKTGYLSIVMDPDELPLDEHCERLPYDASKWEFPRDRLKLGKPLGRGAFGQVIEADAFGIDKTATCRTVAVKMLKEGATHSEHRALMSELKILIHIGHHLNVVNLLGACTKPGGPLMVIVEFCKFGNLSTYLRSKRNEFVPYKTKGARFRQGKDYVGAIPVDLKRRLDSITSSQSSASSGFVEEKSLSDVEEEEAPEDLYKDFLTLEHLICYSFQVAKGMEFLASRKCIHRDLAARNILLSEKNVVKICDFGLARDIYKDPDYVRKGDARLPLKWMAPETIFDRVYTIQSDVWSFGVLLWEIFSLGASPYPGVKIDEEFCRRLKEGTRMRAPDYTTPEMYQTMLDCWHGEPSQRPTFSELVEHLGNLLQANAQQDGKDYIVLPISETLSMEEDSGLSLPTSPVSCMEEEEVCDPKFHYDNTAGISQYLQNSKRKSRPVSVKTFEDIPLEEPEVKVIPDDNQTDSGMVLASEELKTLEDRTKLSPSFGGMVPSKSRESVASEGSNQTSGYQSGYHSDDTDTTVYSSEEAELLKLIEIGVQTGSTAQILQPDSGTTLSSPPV
T1 sequence (P06493 whole entry): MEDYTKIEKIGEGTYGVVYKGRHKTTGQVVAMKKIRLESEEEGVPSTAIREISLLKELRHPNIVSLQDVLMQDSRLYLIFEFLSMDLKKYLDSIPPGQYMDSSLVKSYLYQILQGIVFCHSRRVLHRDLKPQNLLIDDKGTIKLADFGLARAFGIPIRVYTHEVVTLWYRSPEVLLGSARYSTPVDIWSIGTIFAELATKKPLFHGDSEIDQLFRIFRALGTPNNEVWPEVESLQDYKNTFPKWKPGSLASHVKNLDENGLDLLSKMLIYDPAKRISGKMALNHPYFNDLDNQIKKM
T1 sequence (P14635 whole entry partner): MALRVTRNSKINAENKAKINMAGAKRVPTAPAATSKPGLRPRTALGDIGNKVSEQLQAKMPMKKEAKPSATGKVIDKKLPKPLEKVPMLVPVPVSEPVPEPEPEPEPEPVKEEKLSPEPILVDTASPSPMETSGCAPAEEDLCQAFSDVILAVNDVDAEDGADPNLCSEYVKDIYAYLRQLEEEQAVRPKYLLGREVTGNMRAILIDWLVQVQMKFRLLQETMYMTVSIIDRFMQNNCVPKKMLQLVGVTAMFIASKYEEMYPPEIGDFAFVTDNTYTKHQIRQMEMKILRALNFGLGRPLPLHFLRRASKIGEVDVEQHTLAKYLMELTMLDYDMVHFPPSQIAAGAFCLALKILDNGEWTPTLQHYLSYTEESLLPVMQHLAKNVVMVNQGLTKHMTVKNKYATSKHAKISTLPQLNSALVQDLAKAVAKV

Row | IC50 (CDK1/CycB) [nM] | IC50 (MCF7 breast tumour cells) [nM] | IC50 (CDK2/CycE) [nM] | IC50 (KDR (VEGFR2)) [nM] | IC50 (Aurora-C) [nM] | inhibition of Aurora C kinase (in words) (Aurora-C; summary of Tab. 1) | SMILES | antiproliferative activity, MCF7 (in words) (MCF7 breast tumour cells)
1 | 110 | 110 | 21 | 37 | 570 | – | C[C@@H](Nc1nc(Nc2ccc(S(C)=NS(=O)(=O)c3ccccc3)cc2)ncc1Br)C(C)(C)O (mixture of isomers) [Example 15, (RS)—S-{4-[(5-Bromo-4-{[(R)-2-hydroxy-1,2-dimethylpropyl]amino}pyrimidin-2-yl)amino]phenyl}-S-methyl-N-(phenylsulphonyl)sulphimide] | excellent antiproliferative activity
2 | 98 | 1800 | 25 | 320 | 1100 | – | CC(=O)Nc1nnc(S(=O)(=O)N=S(C)c2ccc(Nc3ncc(Br)c(N[C@H](C)C(C)(C)O)n3)cc2)s1 (mixture of isomers) [Example 19, (RS)—N-{[5-(Acetylamino)-1,3,4-thiadiazol-2-yl]sulphonyl}-S-{4-[(5-bromo-4-{[(R)-2-hydroxy-1,2-dimethylpropyl]amino}pyrimidin-2-yl)amino]phenyl}-S-methyl-sulphimide] | –
3 | 120 | 110 | 39 | 70 | 990 | – | C[C@@H](Nc1nc(Nc2ccc(S(C)=NS(=O)(=O)C(F)(F)F)cc2)ncc1Br)C(C)(C)O (mixture of isomers) [Example 14, (RS)—S-{4-[(5-Bromo-4-{[(R)-2-hydroxy-1,2-dimethylpropyl]amino}pyrimidin-2-yl)amino]phenyl}-S-methyl-N-[(trifluoromethyl)sulphonyl]sulphimide] | excellent antiproliferative activity
4 | 36 | 310 | 12 | 49 | 390 | – | CCCS(=O)(=O)N=S(C)c1ccc(Nc2ncc(Br)c(N[C@H](C)C(C)(C)O)n2)cc1 (mixture of isomers) [Example 21, (RS)—S-{4-[(5-Bromo-4-{[(R)-2-hydroxy-1,2-dimethylpropyl]amino}pyrimidin-2-yl)amino]phenyl}-S-methyl-N-(propylsulphonyl)sulphimide] | –
5 | 620 | 900 | 99 | 22 | 360 | inhibits | Cc1ccc(S(=O)(=O)N=S(C)c2ccc(Nc3ncc(Br)c(N[C@H](C)CO)n3)cc2)cc1 (mixture of isomers) [Example 8, (RS)—S-{4-[(5-Bromo-4-{[(R)-2-hydroxy-1-methylethyl]amino}pyrimidin-2-yl)-amino]phenyl}-S-methyl-N-(tolylsulphonyl)sulphimide] | –
